# Assay results taken from US20100047191A1, “NOVEL USE” (priority 2007, published 2010).
# How the values were obtained:
# [1] = Hydroxyapatite microplate erosion method (phosphate release after 1% citric acid, pH 3.8); details: Example 7
# Protocol: The wells of 96-well 200 μl microplates were filled with a concentrated suspension of high resolution hydroxyapatite (HA) powder (20 g HA in 200 ml acetone). The plates were allowed to dry under agitation (50 rpm on an orbital shaker) and then washed thoroughly with deionised water to remove any loose HA. For erosion experiments, the wells of the HA coated microplates were filled with deionised water and left to hydrate for 60 mins. The water was then removed and each of the 8 wells of one lane of the microplate filled with 200 μl of one of the agents to be tested. Each plate contained 12 lanes, so 6 agents could be tested in duplicate (at n=8) in each microplate. The actives were left in the wells for 30 mins under agitation, after which time the plates were again washed thoroughly with deionised water. The erosive challenge used for the study was an orange juice mimic, 1% citric acid, pH 3.8. The wells of the plate were exposed to 200 μl of the citric acid solution under agitation for 30 mins. After the acid challenge, 50 μl of the citric acid was removed from each well and placed into the corresponding well of a new 96-well microplate. 50 μl of vanadomolybdate reagent was then added to each well and after 5 mins, the absorbance of the solution in each well at 450 nm was read using a microplate plate reader. The test agents assessed using this technique were nanoparticulate zinc oxide aqueous suspension, 0.5 wt % in water, stabilised with both anionic and cationic dispersants (Nanoshield ZN-3008C and Nanoshield ZN-3014A respectively, both 70 nm average particle size and obtained from Nanophase Technologies, 1319 Marquette Drive, Romeoville, Ill. 60446. USA).
# The chart contains data from one microplate, where treatments have been carried out in duplicate at n=8 each time, as described above. […] The positive control used was 300 ppm fluoride, and the negative control was deionised water.
# An additional experiment was performed as described in Example 4, where the stabilising agent for the nanoparticulate zinc oxide (0.5 wt % suspension in water) was sodium hexametaphosphate (HMP) present in an amount of 2 wt % with respect to the zinc oxide (ie present in an amount of 0.01 wt %). […] The nanoparticulate zinc oxide was tested in the presence and absence of fluoride again, and at two different pH values (pH 7 and pH 9).
# The experiments were performed as described in Example 4 above, using one side of a hydroxyapatite microplate (n=8). The test agents assessed in this case were a) 0.5 wt % Nanoshield ZN-3008C in water, b) 0.5 wt % zinc acetate, c) 0.5 wt % zinc citrate and d) 0.5 wt % zinc oxide (bulk material). […] Positive and negative controls used were 225 ppm fluoride and deionised water respectively.
# A final hydroxyapatite microplate experiment was performed as described in Examples 4 and 5 where the stabilising agent for the nanoparticulate zinc oxide was either polyvinyl pyrrolidone (PVP) or Propylene glycol. […] The nanoparticulate zinc oxide was tested in the presence of fluoride in each case.
# [2] = acidic acetate buffer at pH 4.5; cited from earlier work
# [3] = repeated acidic erosive challenges; placebo 13.9 μm; cited from earlier work
# [4] = 20-day in vitro erosion cycling study (microhardness); design: species or system human
# Description: Human enamel specimens (3×3 mm) were ground and polished using silicon carbide paper. The top side of the specimens was ground using 1200-grit paper and then serially polished using 4000-grit paper followed by […] diamond polishing suspension. Each specimen was mounted on the end of an acrylic rod (¼″ diameter×2″ long) using superglue. The sides of each specimen were covered with an epoxy resin so that only the enamel surface was exposed. Eighteen specimens per group were used for the study. Each group was composed of 3 subgroups of 6 specimens. Initial hardness of the sound specimens was determined using a Vickers hardness indenter by applying a load of 200 g for 15 seconds. The average specimen microhardness was determined from four indentations on the surface of each specimen. Only specimens with a sound surface hardness of between 300 and 350 were accepted. A 50:50 mixture of pooled, human saliva and a mineral solution was used as the remineralisation medium in all treatment regimens, and the demineralising solution was 1% citric acid, pH 3.8. The four treatments considered were: Group A) Deionised water, Group B) 300 ppm Fluoride, Group C) 0.50 wt % ZnO in deionized water, Group D) 0.50 wt % ZnO in 300 ppm Fluoride. […] The cyclic treatment regimen consisted of five, two-minute acid challenges in the demineralizing solution and three, two-minute treatment periods (with stirring at 350 rpm). After each treatment, the specimens were rinsed with running deionized water and then placed back into the saliva remineralization system. This regimen was repeated for 10 days, after which time the specimens were analysed by remeasuring their microhardness. A further 10 days of cycling was then performed and a 20 day microhardness value measured.
# Statistical analysis of the data above in Graph 4 was performed with a one-way analysis of variance using Sigma Stat (3.0) Software. ANOVA indicated a significant difference so pair wise comparisons between the groups was conducted (Student Newman Keuls test).
# [5] = Enamel anti-caries softening microhardness study (lactic acid buffer); design: species or system human; details: two cycles of 2 minute treatment and two hours 0.1M lactic acid buffer pH 4.5
# Protocol: The study performed involved incubation of human enamel in 0.1M lactic acid buffer (pH 4.5), following a 2 minute treatment with one of the following four formulations: (A) 0.5% suspension of nano ZnO. […] (D) de-ionised water. The zinc oxide used was Nanoshield ZN-3008C as described above in Example 4. Specimens were washed with water in between treatments and erosion procedures. The acid exposure time was two hours, after which the specimens were rinsed in de-ionised water and re-treated with the appropriate formulation for 2 minutes. The specimens then were placed into the lactic acid for a further two hours. After the acid challenge they were washed thoroughly with de-ionised water and the microhardness measured. Six indents were obtained for each enamel specimen and each treatment was performed on six individual specimens (n=6).
# The values for enamel hardness have been normalised relative to the individual baseline microhardness values, thus data at subsequent time points reflects softening of the enamel. The error bars in Graph 9 represent standard deviations.
# [6] = 0.5 wt % in 225 ppm fluoride solution, Graph 6
# [7] = 0.5 wt % in deionised water, no fluoride, Graph 5
Structure (SMILES),"preventing the demineralisation of hydroxyapatite, combination with 225 ppm fluoride compared with 225 ppm fluoride alone [1, 6]","preventing demineralisation of hydroxyapatite, compared with water [1, 7]","preventing the demineralisation of hydroxyapatite, compared with 225 ppm fluoride [1, 7]","decreasing acid dissolution of hydroxyapatite, compared with sodium fluoride [2]",depth of complete mineral loss [3],"preventing the demineralisation of hydroxyapatite, combination with 225 ppm fluoride compared with water [1, 6]","Change at 10 days (microhardness vs lesion baseline, mean) ([4]; 10 days cycling)","Post 10 days (Vickers microhardness, mean) ([4]; 10 days cycling: five 2-min 1% citric acid challenges and three 2-min treatments daily, saliva remineralisation)","Change at 20 days (microhardness vs lesion baseline, mean) ([4]; 20 days cycling)","Post 20 days (Vickers microhardness, mean) ([4]; 20 days cycling)",protection from the lactic acid buffer challenge [5],"% VHN compared to baseline, After treatment/acid challenge ([5]; n=6)"
CC(=O)[O-].CC(=O)[O-].[Zn+2] [zinc acetate],directionally superior but statistically equivalent to 225 ppm fluoride alone,statistically superior to water,statistically inferior to both the stabilised nanoparticulate zinc oxide and 225 ppm fluoride,almost as effective as sodium fluoride,–,–,–,–,–,–,–,–
"O=C([O-])CC(O)(CC(=O)[O-])C(=O)[O-].O=C([O-])CC(O)(CC(=O)[O-])C(=O)[O-].[Zn+2].[Zn+2].[Zn+2] [Zinc citrate, zinc citrate]",statistically inferior to fluoride alone,–,–,–,10.7 μm,statistically superior to water,–,–,–,–,–,–
"[F-].[Na+] [300 ppm F, sodium fluoride]",–,–,–,–,–,–,−64.6,189.5,−20.1,234.0,approximately 70%,70%
